Active and inactive are the calls of the source. The calls are words filed in the database; no cut-off is given here.
How the values were obtained:
Staphylococcus aureus [1] = test: Antibacterial activity against methicillin-resistant Staphylococcus aureus clinical isolate M12 incubated for 16 to 18 hrs in presence of phosphatidylglycerol; type: functional; conditions: time 16-18 hrs
Staphylococcus aureus [2] = test: Bactericidal activity against methicillin-resistant Staphylococcus aureus clinical isolate M12 infected in KM mouse assessed as decrease in inflammatory cells in dermis at 10 mg/kg, sc measured after 24 hrs; type: functional, organism-based
Staphylococcus aureus [3] = test: Induction of membrane permeability in methicillin-resistant Staphylococcus aureus clinical isolate M12 at 8 to 32 times MIC measured every 2 mins for 10 times by SYTOX Green dye based analysis; type: functional, organism-based
Staphylococcus aureus [4] = test: Antibacterial activity against methicillin-resistant Staphylococcus aureus clinical isolate M17 by CLSI based micro-broth dilution method; type: functional
[5] = Toxicity in KM mouse assessed as edema in renal tubular epithelial cells at 20 mg/kg, sc measured after 24 hrs by H and E staining based analysis; type: organism-based; conditions: in vivo
[6] = Toxicity in BALB/c mouse assessed as edema in hepatocytes at 15 mg/kg, ip bid for 7 days; type: organism-based; conditions: in vivo, 168 h, time 7 day
Staphylococcus aureus [7] = test: Antibacterial activity against methicillin-resistant Staphylococcus aureus clinical isolate M12 infected in KM mouse assessed as decrease in bacterial survival rate at 10 mg/kg, sc measured after 24 hrs by drop-plate counting method relative to control; type: functional
Staphylococcus aureus [8] = test: Antibacterial activity against methicillin-resistant Staphylococcus aureus clinical isolate M12 infected in sepsis BALB/c mouse model assessed as decrease in necrosis in renal tubular epithelial cells at 6 to 12 mg/kg, ip administered consecutively at 12 hr-interval for 24 hrs measured after 24 hrs post-last dose by H and E staining based analysis; type: functional, organism-based; conditions: dose 6-12 mg/kg, time 48.0 hrs
[9] = Toxicity in KM mouse assessed as necrosis in cardiac muscle fibers at 20 mg/kg, sc measured after 24 hrs by H and E staining based analysis; type: organism-based; conditions: in vivo
Staphylococcus aureus [10] = test: Bactericidal activity against methicillin-resistant Staphylococcus aureus clinical isolate M12 assessed as inhibition of bacterial growth at 4 times MIC incubated upto 8 hrs by time-kill assay; type: functional, organism-based
[11] = Toxicity in KM mouse assessed as necrosis in renal tubular epithelial cells at 20 mg/kg, sc measured after 24 hrs by H and E staining based analysis; type: organism-based; conditions: in vivo
Staphylococcus aureus [12] = test: Antibacterial activity against methicillin-resistant Staphylococcus aureus clinical isolate M12 infected in KM mouse assessed as decrease in neutrophils at subcutaneous tissues at 5 to 10 mg/kg, sc measured after 24 hrs; type: functional, organism-based; conditions: dose 5-10 mg/kg
[13] = Toxicity in BALB/c mouse assessed as pathological change in white medulla of spleen at 15 mg/kg, ip bid for 7 days; type: organism-based; conditions: in vivo, 168 h, time 7 day
[14] = Toxicity in KM mouse infected with methicillin-resistant Staphylococcus aureus clinical isolate M12 assessed as damage in lung at 5 to 10 mg/kg, sc measured after 24 hrs by H and E staining based analysis; type: organism-based; conditions: in vivo, dose 5-10 mg/kg
Staphylococcus aureus [15] = test: Induction of resistance development in Staphylococcus aureus ATCC 29213 at 0.5 times MIC treated for 20 days of consecutive passages; type: functional, organism-based; conditions: time 20.0 day
Staphylococcus aureus [16] = test: Antibacterial activity against methicillin-resistant Staphylococcus aureus clinical isolate M12 infected in sepsis BALB/c mouse model assessed as decrease in pathological change in white medulla of spleen at 6 mg/kg, ip administered consecutively at 12 hr-interval for 24 hrs measured after 24 hrs post-last dose by H and E staining based analysis; type: functional, organism-based; conditions: time 48.0 hrs
Staphylococcus aureus [17] = test: Antibacterial activity against methicillin-resistant Staphylococcus aureus clinical isolate M12 infected in sepsis BALB/c mouse model assessed as decrease in pathological change in red medulla of spleen at 12 mg/kg, ip administered consecutively at 12 hr-interval for 24 hrs measured after 24 hrs post-last dose by H and E staining based analysis; type: functional, organism-based; conditions: time 48.0 hrs
[18] = Toxicity in KM mouse assessed as clear skin section at 20 mg/kg, sc measured after 24 hrs by H and E staining based analysis; type: organism-based; conditions: in vivo
Staphylococcus aureus [19] = test: Bactericidal activity against methicillin-resistant Staphylococcus aureus clinical isolate M12 at 8 times MIC incubated upto 8 hrs by time-kill assay; type: functional, organism-based
Staphylococcus aureus [20] = test: Antibacterial activity against methicillin-resistant Staphylococcus aureus clinical isolate M14 by CLSI based micro-broth dilution method; type: functional
[21] = Toxicity in KM mouse assessed as pathological change in skin at 20 mg/kg, sc measured after 24 hrs by H and E staining based analysis; type: organism-based; conditions: in vivo
Staphylococcus aureus [22] = test: Disruption of cell membrane in methicillin-resistant Staphylococcus aureus clinical isolate M12 assessed as fold increase in DNA leakage at 8 times MIC incubated for 4 hrs by […] relative to control; type: functional
Staphylococcus aureus [23] = test: Antibacterial activity against methicillin-resistant Staphylococcus aureus clinical isolate M12 incubated for 16 to 18 hrs in presence of phosphatidylethanolamine; type: functional; conditions: time 16-18 hrs
Staphylococcus aureus [24] = test: Antibacterial activity against methicillin-resistant Staphylococcus aureus clinical isolate M12 infected in KM mouse assessed as intact skin at infection site at 10 mg/kg, sc measured after 24 hrs; type: functional, organism-based
[25] = Toxicity in KM mouse assessed as pathological change in liver at 20 mg/kg, sc measured after 24 hrs by H and E staining based analysis; type: organism-based; conditions: in vivo
[26] = Toxicity in KM mouse infected with methicillin-resistant Staphylococcus aureus clinical isolate M12 assessed as histopathological abnormality in heart at 5 to 10 mg/kg, sc measured after 24 hrs by H and E staining based analysis; type: organism-based; conditions: in vivo, dose 5-10 mg/kg
[27] = Toxicity in KM mouse infected with methicillin-resistant Staphylococcus aureus clinical isolate M12 assessed as damage in heart at 5 to 10 mg/kg, sc measured after 24 hrs by H and E staining based analysis; type: organism-based; conditions: in vivo, dose 5-10 mg/kg
Staphylococcus aureus [28] = test: Antibacterial activity against methicillin-resistant Staphylococcus aureus clinical isolate M12 infected in KM mouse assessed as reduction in TNF-alpha level at infection site at 5 mg/kg, sc measured after 24 hrs by ELISA; type: functional
[29] = Toxicity in KM mouse assessed as adverse effect at 20 mg/kg, sc; type: organism-based; conditions: in vivo
[30] = Toxicity in KM mouse assessed as degeneration in cardiac muscle fibers at 20 mg/kg, sc measured after 24 hrs by H and E staining based analysis; type: organism-based; conditions: in vivo
Staphylococcus aureus [31] = test: Induction of membrane depolarization in methicillin-resistant Staphylococcus aureus clinical isolate M12 at 8 to 32 times MIC measured every 2 mins for 10 times by DiSC3(5) dye based analysis; type: functional, organism-based; conditions: time 20.0 min
Staphylococcus aureus [32] = test: Antibacterial activity against methicillin-resistant Staphylococcus aureus clinical isolate M12 infected in KM mouse assessed as reduction in IL-6 level at infection site at 5 mg/kg, sc measured after 24 hrs by ELISA; type: functional
Staphylococcus aureus [33] = test: Antibacterial activity against methicillin-resistant Staphylococcus aureus clinical isolate M23 by CLSI based micro-broth dilution method; type: functional
[34] = Toxicity in KM mouse infected with methicillin-resistant Staphylococcus aureus clinical isolate M12 assessed as damage in liver at 5 to 10 mg/kg, sc measured after 24 hrs by H and E staining based analysis; type: organism-based; conditions: in vivo, dose 5-10 mg/kg
[35] = Toxicity in BALB/c mouse assessed as degeneration of renal tubular epithelial cells at 15 mg/kg, ip bid for 7 days; type: organism-based; conditions: in vivo, 168 h, time 7 day
[36] = Toxicity in BALB/c mouse assessed as necrosis in hepatocytes at 15 mg/kg, ip bid for 7 days; type: organism-based; conditions: in vivo, 168 h, time 7 day

C=CCc1cc(-c2ccc(OCCC[N+](C)(C)CC(=O)NCCCC)c(CC=C)c2)c2oc(=S)n(Cc3ccc(F)cc3)c2c1.[Br-]
MIC (Staphylococcus aureus [1]): 128 µg/mL | Activity (Staphylococcus aureus [2]): Active | Activity (Staphylococcus aureus [3]): Active | MIC (Staphylococcus aureus [4]): 4 µg/mL | Activity [5]: Non-Toxic | Activity [6]: Non-Toxic | Activity (Staphylococcus aureus [7]): 99.67% | Activity (Staphylococcus aureus [8]): Active | Activity [9]: Non-Toxic | Activity (Staphylococcus aureus [10]): Active | Activity [11]: Non-Toxic | Activity (Staphylococcus aureus [12]): Active | Activity [13]: Non-Toxic | Activity [14]: Non-Toxic | Activity (Staphylococcus aureus [15]): inactive | Activity (Staphylococcus aureus [16]): inactive | Activity (Staphylococcus aureus [17]): Active | Activity [18]: Non-Toxic | Activity (Staphylococcus aureus [19]): Active | MIC (Staphylococcus aureus [20]): 2 µg/mL | Activity [21]: Non-Toxic | fold change (FC) (Staphylococcus aureus [22]): ~4 | MIC (Staphylococcus aureus [23]): 2 µg/mL | Activity (Staphylococcus aureus [24]): Active | Activity [25]: Non-Toxic | Activity [26]: Non-Toxic | Activity [27]: Non-Toxic | Activity (Staphylococcus aureus [28]): 91.5 pg/mL | Activity [29]: Non-Toxic | Activity [30]: Non-Toxic | Activity (Staphylococcus aureus [31]): Active | Activity (Staphylococcus aureus [32]): 65.6 pg/mL | MIC (Staphylococcus aureus [33]): 2 µg/mL | Activity [34]: Non-Toxic | Activity [35]: Non-Toxic | Activity [36]: Non-Toxic
